Source: patent US7385086B2 (priority 1997, dated 2008)

Test system: isoniazid (INH) resistant M. tuberculosis
Type: cell-based, Mycobacterium tuberculosis

## CCCCCCCCS(=O)(=O)CC(N)=O [HIII-50, n-Octanesulphonylacetamide]
  growth inhibition: inhibits

## NNC(=O)c1ccncc1 [isoniazid, reference compound]
  isoniazid resistance level: > 0.4 µg/mL
